Test results: patent US7723363B2, “2-pyridinylethylcarboxamide derivatives and their use as fungicides” (Bayer Cropscience SA, priority 2004, dated 2010)

What was measured:
Peronospora parasitica = test: Efficacy against Peronospora parasitica; format: in vivo; conditions: at 330 ppm; comparison compound of WO 01/11965
Alternaria brassicae = test: In vivo test on Alternaria brassicae (leaf spot of crucifers); conditions: at 330 ppm; comparison compounds of WO 01/11965
Method: The active ingredient tested is prepared by potter homogenisation in a concentrated suspension type formulation at 100 g/l. This suspension is then diluted with water to obtain the desired active material concentration.
Radish plants (Pernot variety) in starter cups, sown on a 50/50 peat soil-pozzolana substrate and grown at 18-20° C., are treated at the cotyledon stage by spraying with the aqueous suspension described above.
Plants, used as controls, are treated with an aqueous solution not containing the active material.
After 24 hours, the plants are contaminated by spraying them with an aqueous suspension of Alternaria brassicae spores (40,000 spores per cm^3). The spores are collected from a 12-13-day-old culture.
The contaminated radish plants are incubated for 6-7 days at about 18° C., under a humid atmosphere.
Grading is carried out 6 to 7 days after the contamination, in comparison with the control plants.

Botrytis cinerea = test: Effectiveness on Botrytis cinerea; format: in vivo; conditions: at 330 ppm; comparison compounds of WO 01/11965

melting point | Compound | efficacy against Peronospora parasitica (Peronospora parasitica) | effectiveness on Alternaria brassicae (Alternaria brassicae) | effectiveness on Botrytis cinerea (Botrytis cinerea)
192 °C | O=C(NCC(C(=O)O)c1nc(F)c(Cl)cc1F)c1sccc1I (stereo not shown) [Compound A-3] | – | – | –
– | O=C(Cc1cccs1)NCc1ncc(C(F)(F)F)cc1Cl [compound 101, N-{[3-chloro-5-(trifluoromethyl)-2-pyridinyl]methyl}-5-thienylacetamide] | no efficacy | poor efficacy | no efficacy
– | CCNC(=O)C(Cc1ncc(C(F)(F)F)cc1Cl)NC(=O)c1ccccc1 (stereo not shown) [compound 304, N-{1-ethylcarbamoyl-2-[3-chloro-5-(trifluoromethyl)-2-pyridinyl]-ethyl}-benzamide] | – | – | zero effectiveness
– | CCNC(=O)C(Cc1ncc(C(F)(F)F)cc1Cl)NC(=O)c1ccc(Cl)cc1 (stereo not shown) [compound 306, N-{1-ethylcarbamoyl-2-[3-chloro-5-(trifluoromethyl)-2-pyridinyl]-ethyl}-4-chlorobenzamide] | – | – | zero effectiveness
– | CCNC(=O)C(Cc1ncc(C(F)(F)F)cc1Cl)NC(=O)c1cccc([N+](=O)[O-])c1 (stereo not shown) [compound 307, N-{1-ethylcarbamoyl-2-[3-chloro-5-(trifluoromethyl)-2-pyridinyl]ethyl}-3-nitrobenzamide] | – | poor effectiveness | zero effectiveness
– | CCNC(=O)C(Cc1ncc(C(F)(F)F)cc1Cl)NC(=O)c1ccccc1Br (stereo not shown) [compound 310, N-{1-ethylcarbamoyl-2-[3-chloro-5-(trifluoromethyl)-2-pyridinyl]ethyl}-2-bromobenzamide] | – | – | zero effectiveness
– | CNC(=O)C(Cc1ncc(C(F)(F)F)cc1Cl)NC(=O)c1ccccc1 (stereo not shown) [compound 314, N-{1-methylcarbamoyl-2-[3-chloro-5-(trifluoromethyl)-2-pyridinyl]ethyl}-benzamide] | – | – | zero effectiveness
– | CNC(=O)C(Cc1ncc(C(F)(F)F)cc1Cl)NC(=O)c1ccc(OC)cc1 (stereo not shown) [compound 315, N-{1-methylcarbamoyl-2-[3-chloro-5-(trifluoromethyl)-2-pyridinyl]ethyl}-4-methoxybenzamide] | – | – | zero effectiveness
– | CNC(=O)C(Cc1ncc(C(F)(F)F)cc1Cl)NC(=O)c1ccc(-c2ccccc2)cc1 (stereo not shown) [compound 316, N-{1-methylcarbamoyl-2-[3-chloro-5-(trifluoromethyl)-2-pyridinyl]-ethyl}-4-phenylbenzamide] | – | poor effectiveness | zero effectiveness
